{"source": "patent US7285703B2", "about": "“Plant like starches and the method of making them in hosts” (BASF Plant Science GmbH, priority 1998, dated 2007)", "target": "T1, maize starch synthase SSI-1 (STSI-1), full length SSI (583 amino acids), N-terminus CVAELSREGP (SEQ ID NO:64) (Zea mays, UniProt O49064)", "T1 sequence (O49064 with tags, fused parts or gaps)": "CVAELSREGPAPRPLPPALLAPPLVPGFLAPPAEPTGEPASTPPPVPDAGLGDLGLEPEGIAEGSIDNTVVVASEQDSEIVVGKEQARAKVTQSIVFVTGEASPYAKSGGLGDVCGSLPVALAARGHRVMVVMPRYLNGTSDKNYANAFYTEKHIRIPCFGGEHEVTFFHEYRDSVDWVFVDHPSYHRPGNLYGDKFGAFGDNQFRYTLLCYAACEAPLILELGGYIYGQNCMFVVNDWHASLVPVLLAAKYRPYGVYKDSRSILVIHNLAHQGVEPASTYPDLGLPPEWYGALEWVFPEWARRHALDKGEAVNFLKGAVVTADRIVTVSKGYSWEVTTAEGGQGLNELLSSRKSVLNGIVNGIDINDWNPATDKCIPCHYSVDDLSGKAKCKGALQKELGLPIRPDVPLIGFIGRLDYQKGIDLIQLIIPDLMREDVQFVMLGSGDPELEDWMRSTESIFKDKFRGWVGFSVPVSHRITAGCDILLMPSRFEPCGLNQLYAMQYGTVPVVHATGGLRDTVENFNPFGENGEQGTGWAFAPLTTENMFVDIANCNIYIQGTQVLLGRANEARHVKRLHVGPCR", "experiment": "ADPGlc kinetics of starch synthase SSI-1", "assay_type": "biochemical", "settings": "5 mg/ml amylopectin as primer, 37° C.", "description": "FIG. 58. SSI-1, SSI-2, and SSI-3 construct design. Three forms of SSI were constructed in the pET expression (see Methods). pExs10a encodes SSI-1, the full length maize SSI (583 amino acids) which has the N-terminal sequence CVAELSREGP (SEQ ID NO:64). pExs8 encodes a truncated SSI, SSI-2, with amino acids # 8-52 deleted from the N-terminus of SSI-1 and which has the N-terminal sequence CVAELSR/DLG (SEQ ID NO:65). pExs1d encodes the most truncated form of SSI, SSI-3, with the first 93 amino acids deleted from SSI-1 and which has the N-terminal sequence SIVFVTGE (SEQ ID NO:66). A depiction of the waxygene, encoding GBSS, which has the N-terminal sequence ASAGMNW (SEQ ID NO:67), is also included for comparison. The amino acid motif KS/TGGL (SEQ ID NO:9), the putative binding site for ADGPGlc, in indicated by the triangles. The KS/TGGL (SEQ ID NO:9) motif is located 18 amino acids from the N-terminus in GBSS, while the motif is 106 amino acids from the N-terminus in maize SSI. Drawing not to scale.\n5 mL of supernatant were used to assay STS and SBE activities as previously described (Preiss) with minor modification. […] The unincorporated [^14C]-ADPGlc was separated with Dowex anion exchange column (200-400 mesh, Sigma Chemical Co.). […] SBE activity was determined by phosphorylase stimulation assay. One unit of activity is defined as 1 mmol Glc incorporated into the a-glucan per min at. […]", "data": [{"smiles": "Nc1ncnc2c1ncn2[C@@H]1O[C@H](COP(=O)(O)OP(=O)(O)O[C@H]2O[C@H](CO)[C@@H](O)[C@H](O)[C@H]2O)[C@@H](O)[C@H]1O", "note": "[ADPGlc, adenosine diphosphate glucose]", "values": [{"measurement": "Vm (ADPGlc kinetics)", "setting": "+citrate", "value": "18.0 ± 0.5", "unit": "μmol/min/mg protein"}, {"measurement": "Vm (ADPGlc kinetics)", "setting": "−citrate", "value": "6.38 ± 0.88", "unit": "μmol/min/mg protein"}]}]}
